In paper PMC8151276, “An Integrated Approach toward NanoBRET Tracers for Analysis of GPCR Ligand Engagement” (Molecules, 2021):

Target: T1, CHRM2 (Homo sapiens, UniProt P08172)
T1 construct: purchased Promega (in-house HiBiT-GPCR construct library, NanoBRET)
T1 sequence (P08172 1-466): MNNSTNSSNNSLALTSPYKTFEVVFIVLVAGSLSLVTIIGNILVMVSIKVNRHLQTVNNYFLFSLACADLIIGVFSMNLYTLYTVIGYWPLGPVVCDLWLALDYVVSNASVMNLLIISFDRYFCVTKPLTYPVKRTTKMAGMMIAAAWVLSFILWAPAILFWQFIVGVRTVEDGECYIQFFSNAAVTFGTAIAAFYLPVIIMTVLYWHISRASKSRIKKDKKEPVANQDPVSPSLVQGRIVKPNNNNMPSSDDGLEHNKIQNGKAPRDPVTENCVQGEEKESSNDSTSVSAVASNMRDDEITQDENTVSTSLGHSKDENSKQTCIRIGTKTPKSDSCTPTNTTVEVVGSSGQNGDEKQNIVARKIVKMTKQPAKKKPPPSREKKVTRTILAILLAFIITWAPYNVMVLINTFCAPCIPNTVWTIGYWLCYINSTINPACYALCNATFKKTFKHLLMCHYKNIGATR
Test: NanoBRET screen HiBiT-CHRM2 in HEK293
Assay type: binding
Procedure: Each tracer candidate was screened across the entire library of HiBiT-GPCR constructs using NanoBRET as the detection modality. As depicted in Figure 4A, the specificity of interactions was evaluated through decrease in BRET due to competitive displacement of a bound tracer by excess parental compound. Each tracer was analyzed for binding to each HiBiT-GPCR fusion in the absence and in the presence of competing parental compound. Briefly, HEK293 cells were transfected with HiBiT-GPCR constructs diluted into promoterless DNA to reduce expression and maximize translocation to the cell surface. Each tracer candidate was then screened at concentrations of 1 μM and 0.1 μM across cells expressing these fusions. Cells were treated for 1.5 h with tracer either alone or in the presence of 20 μM competing parental compound (i.e., control). BRET was measured upon addition of purified LgBiT and subsequent complementation with HiBiT genetically fused to a GPCR. The specificity of interactions was assessed through a decrease in BRET signal due to competitive displacement of the bound tracer. To further gauge the robustness of these interactions, the fold response over the control (i.e., BRETtracer/BRETcontrol) was calculated. We chose a 1.5-fold response, which translates to ≥7-fold signal over noise as the minimal threshold required to score an interaction as positive.
HiBiT-GPCR DNA constructs were diluted in 10 mM Tris pH 8 to a final concentration of 0.01 μg/μL, arrayed in 96-well plates and stored at −20 °C. For transfection, HEK293 cells were suspended in Opti-MEM (without phenol red) supplemented with 2% fetal bovine serum (Seradigm) and 100 units/mL penicillin–streptomycin (Gibco) at a final concentration of 220,000 cells/mL and dispensed into white 96-well plates at 90 μL/well. Subsequent transfections and screens were carried using an Agilent Bravo Automated Liquid Handling Platform. First, the 96-well HiBiT DNA arrays were diluted 25-fold in Opti-MEM (without serum or phenol red) to a final concentration of 0.0004 μg/μL and 20 μL of the diluted DNAs were transferred into new 96-well plates. Next, promoterless carrier DNA (1 μg/μL) was diluted 25-fold (0.04 μg/μL) and then dispensed into the diluted arrays at 20 μL/well. Following brief mixing, Viafect transfection reagent (Promega) diluted 16-fold into Opti-MEM was dispensed into the plates at 40 μL/well. After mixing by pipetting, plates were incubated for 10 min on the pipetting station deck. The DNA-transfection reagent complexes were then added to plates containing cells. To facilitate the screen, 10 μL of DNA-transfection reagent complexes were added in duplicates to the top 4 and bottom 4 rows, resulting in two identical 48-well arrays per plate. Plates with transfected cells were incubated for 18–20 h at 37 °C/5% CO2. A screen of each tracer across the entire library using two different concentrations requires duplicate plates of transfected cells. Depending on the number of tracers being screened, transfections can be scaled up using the same ratios. The next day, for each tracer, four 20× screening solutions in tracer dilution buffer (Promega) were prepared: two duplicates at final concentration of 20 μM and two duplicates at a final concentration of 2 μM. […] The four resulting solutions were diluted 4-fold in Opti-MEM without serum or phenol red to generate 5× solutions (5 µM and 0.5 µM tracer +/− 100 μM competing compound). To screen the library, a BioTek MultiFlo FX liquid dispenser was used to dispense 22.5 µL of tracer solution to the top 4 rows and 22.5 µL tracer + competing compound solution to the 4 bottom rows. Plates were briefly mixed on an orbital shaker and incubated for 1.5 h at room temperature. […] Plates were briefly mixed on an orbital shaker and incubated for 15 min to allow complementation.

Compound	NanoBRET Fold Response (CHRM2, tracer 0.1μM)	NanoBRET Fold Response (CHRM2, tracer 1μM)	also measured
CCOC(=O)c1cc(C#N)c(N2CCC(C(=O)NS(=O)(=O)Cc3ccccc3/C=C/C(=O)NCCNC(=O)CCc3ccc4n3[B-](F)(F)[N+]3=C(c5ccc[nH]5)C=CC3=C4)CC2)nc1C [AZD1283-1-NB590]			NanoBRET Fold Response (CHRM2, 0.1μM): 1.05; NanoBRET Fold Response (CHRM2, 1μM): 0.96
N#CN=C(NCCCOc1cccc(CN2CCCCC2)c1)NCCNC(=O)CCOCCOCCOCCOCCNC(=O)CCc1ccc2n1[B-](F)(F)[N+]1=C(c3ccc[nH]3)C=CC1=C2 [Aminopotentidine-2-NB590]	1.66	1.68	
CN(C)CCC=C1c2ccccc2CCc2ccc(C(=O)NCCNC(=O)CCOCCOCCOCCOCCNC(=O)CCc3ccc4n3[B-](F)(F)[N+]3=C(c5ccc[nH]5)C=CC3=C4)cc21 [Amitriptyline-a-2-NB590]			NanoBRET Fold Response (tracer at 0.1μM): 1.10; NanoBRET Fold Response (tracer at 1μM): 0.98
CN(C)CCC=C1c2ccccc2CCc2ccc(C(=O)NCCNC(=O)CCOCCOCCOCCOCCNC(=O)CCc3ccc4n3[B-](F)(F)[N+]3=C(c5ccc[nH]5)C=CC3=C4)cc21 [Amitriptyline-b-2-NB590]			NanoBRET Fold Response (tracer at 0.1μM, listed as amitriptyline-b-2-NB590): 2.20; NanoBRET Fold Response (tracer at 1μM, listed as amitriptyline-b-2-NB590): 1.55
CN(CCC=C1c2ccccc2CCc2ccccc21)C(=O)CCOCCOCCOCCOCCNC(=O)CCc1ccc2n1[B-](F)(F)[N+]1=C(c3ccc[nH]3)C=CC1=C2 [Amitriptyline-e-2-NB590]			NanoBRET Fold Response (tracer at 1μM): 1.05
COc1ccc2c(n1)c(CCNC(C)=O)cn2CCNC(=O)CCc1ccc2n1[B-](F)(F)[N+]1=C(c3ccc[nH]3)C=CC1=C2 [Azamelatonin-1-NB590]			NanoBRET Fold Response (0.1μM tracer): 0.80; NanoBRET Fold Response (1μM tracer): 1.35
COc1ccc2[nH]c(-c3ccc(CNC(=O)CCOCCOCCOCCOCCNC(=O)CCc4ccc5n4[B-](F)(F)[N+]4=C(c6ccc[nH]6)C=CC4=C5)cc3)c(CCNC(C)=O)c2n1 [AzomelatoninICO9-2-NB590]			NanoBRET Fold Response (0.1μM tracer): 1.08; NanoBRET Fold Response (1μM tracer): 0.86
O=C(CCOCCOCCOCCOCCNC(=O)CCc1ccc2n1[B-](F)(F)[N+]1=C(c3ccc[nH]3)C=CC1=C2)NCCCN1CCN(C2=Nc3cc(Cl)ccc3Nc3ccccc32)CC1 [Clozapine-a-2-NB590]			NanoBRET Fold Response (CHRM2, 0.1μM tracer): 1.50; NanoBRET Fold Response (CHRM2, 1μM tracer): 1.49
CN1CCN(C2=Nc3cc(Cl)ccc3Nc3ccc(CNC(=O)CCOCCOCCOCCOCCNC(=O)CCc4ccc5n4[B-](F)(F)[N+]4=C(c6ccc[nH]6)C=CC4=C5)cc32)CC1 [Clozapine-b-2-NB590]			NanoBRET Fold Response (CHRM2, 0.1μM tracer): 1.48; NanoBRET Fold Response (CHRM2, 1μM tracer): 1.99
CN1CCN(C2=Nc3cc(Cl)ccc3N(CC(=O)NCCOCCOCCOCCOCCNC(=O)CCc3ccc4n3[B-](F)(F)[N+]3=C(c5ccc[nH]5)C=CC3=C4)c3ccccc32)CC1 [Clozapine-c-2-NB590]			NanoBRET Fold Response (CHRM2, 0.1μM tracer): 0.99; NanoBRET Fold Response (CHRM2, 1μM tracer): 0.87
O=C(CCOCCOCCOCCOCCNC(=O)CCc1ccc2n1[B-](F)(F)[N+]1=C(c3ccc[nH]3)C=CC1=C2)NCCCN1CCN(C2=Nc3ccccc3Oc3ccc(Cl)cc32)CC1 [Loxapine-a-2-NB590]	1.07	1.04	
COc1ccccc1N1CCN(CCCCN2C(=O)c3ccc(CNC(=O)CCOCCOCCOCCOCCNC(=O)CCc4ccc5n4[B-](F)(F)[N+]4=C(c6ccc[nH]6)C=CC4=C5)cc3C2=O)CC1 [NAN-190-2-NB590]	1.13		
COc1ccccc1N1CCN(CCCCN2C(=O)c3ccc(CNC(=O)CCOCCNC(=O)c4ccc(CNC(=O)CCc5ccc6n5[B-](F)(F)[N+]5=C(c7ccc[nH]7)C=CC5=C6)cc4)cc3C2=O)CC1 [NAN-190-3-NB590]	1.14	0.95	
O=C(CCc1ccc2n1[B-](F)(F)[N+]1=C(c3ccc[nH]3)C=CC1=C2)NCc1ccc(C(=O)NCCOCCC(=O)N[C@@H]2CC[C@@]3(O)[C@H]4Cc5ccc(O)c6c5[C@@]3(CCN4CC3CC3)[C@H]2O6)cc1 [Naltrexone-3-NB590]	0.57	1.32	
Cc1cc2c(s1)Nc1ccccc1N=C2N1CCN(CCCNC(=O)CCOCCOCCOCCOCCNC(=O)CCc2ccc3n2[B-](F)(F)[N+]2=C(c4ccc[nH]4)C=CC2=C3)CC1 [Olanzapine-a-2-NB590]		1.30	
O=C(CCc1ccc2n1[B-](F)(F)[N+]1=C(c3ccc[nH]3)C=CC1=C2)NCc1ccc(C(=O)NCCOCCOCCNCC(O)COc2cccc3ccccc23)cc1 (stereo not drawn) [Propranolol-3-NB590]			NanoBRET Fold Response (CHRM2, 0.1μM): 1.14; NanoBRET Fold Response (CHRM2, 1μM): 1.00
O=C(CCc1ccc2n1[B-](F)(F)[N+]1=C(c3ccc[nH]3)C=CC1=C2)NCCOCCOCCNC(=O)OCCOCCN1CCN(C2=Nc3ccccc3Sc3ccccc32)CC1 [Quetiapine-a-2-NB590]	1.56	1.75	
Cc1nc2n(c(=O)c1CCN1CCC(c3noc4cc(F)ccc34)CC1)CCCC2OC(=O)NCCOCCOCCOCCOCCNC(=O)CCc1ccc2n1[B-](F)(F)[N+]1=C(c3ccc[nH]3)C=CC1=C2 (stereo not drawn) [Risperidone-2-NB590]	1.09	1.26	
CC(C)N(CC[C@H](c1ccccc1)c1cc(CCNC(=O)CCOCCOCCOCCOCCNC(=O)CCc2ccc3n2[B-](F)(F)[N+]2=C(c4ccc[nH]4)C=CC2=C3)ccc1O)C(C)C [Tolterodine-2-NB590]	2.98	1.51	
CC(C)N(CC[C@H](c1ccccc1)c1cc(CCNC(=O)c2ccc(CNC(=O)CCc3ccc4n3[B-](F)(F)[N+]3=C(c5ccc[nH]5)C=CC3=C4)cc2)ccc1O)C(C)C [Tolterodine-BZ-NB590]	3.84	2.14	
CCCn1c(=O)c2[nH]c(-c3ccc(OCC(=O)NCCNC(=O)CCOCCNC(=O)c4ccc(CNC(=O)CCc5ccc6n5[B-](F)(F)[N+]5=C(c7ccc[nH]7)C=CC5=C6)cc4)cc3)nc2n(CCC)c1=O [XAC-3-NB590]	1.28	2.12	
